Assay results published in patent US7067524B2, “Substituted phenyl naphthalenes as estrogenic agents” (Wyeth, priority 2001, dated 2006).
Read-outs that look alike come from different tables or passages of the source.

How the values were obtained:
casein kinase II mRNA = assay: Rat mammotrophic assay (mammary end bud test procedure); type: in vivo; conditions: ovariectomized rats, with progesterone 30 mg/kg
[1] = system: Progesterone receptor mRNA; assay: Progesterone receptor mRNA regulation in the preoptic area of the rat brain; type: in vivo
[2] = system: Sexually immature 129 SvE mice; assay: Mouse uterotrophic test procedure (Procedure 2); type: in vivo; conditions: 50 mg/kg/day sc, days 22-25
Lewis rats [3] = assay: Lewis rat adjuvant-induced arthritis, inhibition protocol; type: in vivo
HLA-B27 rats [4] = conditions: for Stool score (group's average score): 2=soft stool, 1=normal stool
[5] = system: Sexually immature Sprague-Dawley rats; assay: Rat uterotrophic test procedure (Procedure 1); type: in vivo
Lewis rats [6] = assay: Lewis rat adjuvant-induced arthritis, treatment protocol; type: in vivo; conditions: for Joint inflammation score: 10 mg/kg sc daily from Day 8 after adjuvant
HLA-B27 rats [7] = conditions: for Joint inflammation score: 10 mg/kg orally once per day
[8] = system: metallothionein-II mRNA in Saos-2 cells; assay: Regulation of metallothionein-II mRNA in Saos-2 cells; type: cell-based; set-up: unit not given here; conditions: column head not given
[9] = colon histological score, 10 mg/kg orally for 46 days
[10] = Mankin scores, tarsal joints, 10 mg/kg, mean ± SD
[11] = synovitis histology, tarsal joints, 10 mg/kg, mean ± SD
[12] = joint histology, 10 mg/kg orally for 46 days

C[C@]12CC[C@@H]3c4ccc(O)cc4CC[C@H]3[C@@H]1CC[C@@H]2O [17β-estradiol, reference compound]
Casein kinase II mRNA/18S rRNA (mean ± SEM) (casein kinase II mRNA; 0.1 mg/kg sc 6 days): 39.0 ± 5.4 | Progesterone receptor mRNA (arbitrary units; mean ± stdev) ([1]; 30 μg/kg): 557.1 ± 80.6 arbitrary units | mean uterine weight (mg) ± SEM [2]: 45.3 ± 1.9 mg

N#Cc1cc(-c2ccc(O)c(F)c2)cc2ccc(O)cc12 [Example 1av, 3-(3-Fluoro-4-hydroxyphenyl)-7-hydroxy-1-naphthonitrile]
Joint inflammation score (Lewis rats [3]; sc daily from Day 1, Day 1, maximal score 12): 0.00 | Joint inflammation score (Lewis rats [3]; sc daily from Day 1, Day 2, maximal score 12): 0.00 | Joint inflammation score (Lewis rats [3]; sc daily from Day 1, Day 3, maximal score 12): 2.66 | Joint inflammation score (Lewis rats [3]; sc daily from Day 1, Day 4, maximal score 12): 1.83 | Joint inflammation score (Lewis rats [3]; sc daily from Day 1, Day 5, maximal score 12): 2.66 | Joint inflammation score (Lewis rats [3]; sc daily from Day 1, Day 6, maximal score 12): 2.16 | Joint inflammation score (Lewis rats [3]; sc daily from Day 1, Day 7, maximal score 12): 2.00 | Joint inflammation score (Lewis rats [3]; sc daily from Day 1, Day 8, maximal score 12): 1.66 | Joint inflammation score (Lewis rats [3]; sc daily from Day 1, Day 9, maximal score 12): 2.00 | Joint inflammation score (Lewis rats [3]; sc daily from Day 1, Day 10, maximal score 12): 2.00 | Joint inflammation score (Lewis rats [3]; sc daily from Day 1, Day 11, maximal score 12): 1.66 | Joint inflammation score (Lewis rats [3]; sc daily from Day 1, Day 12, maximal score 12): 1.66 | Joint inflammation score (Lewis rats [3]; sc daily from Day 1, Day 13, maximal score 12): 2.16 | Joint inflammation score (Lewis rats [3]; sc daily from Day 1, Day 14, maximal score 12): 2.00 | Joint inflammation score (Lewis rats [3]; sc daily from Day 1, Day 15, maximal score 12): 2.00 | Joint inflammation score (Lewis rats [3]; sc daily from Day 1, Day 16, maximal score 12): 1.00 | Joint inflammation score (Lewis rats [3]; sc daily from Day 1, Day 17, maximal score 12): 1.33 | Time until stool character normalized (HLA-B27 rats [4]; 10 mg/kg orally daily): ≤ 21 days | Stool score (group's average score) (HLA-B27 rats [4]; 10 mg/kg orally daily, Day 1, 3=diarrhea): 2.75 | Stool score (group's average score) (HLA-B27 rats [4]; 10 mg/kg orally daily, Day 2, 3=diarrhea): 2.5 | Stool score (group's average score) (HLA-B27 rats [4]; 10 mg/kg orally daily, Day 3, 3=diarrhea): 2.25 | Stool score (group's average score) (HLA-B27 rats [4]; 10 mg/kg orally daily, Day 4, 3=diarrhea): 2.5 | Stool score (group's average score) (HLA-B27 rats [4]; 10 mg/kg orally daily, Day 5, 3=diarrhea): 2.25 | Stool score (group's average score) (HLA-B27 rats [4]; 10 mg/kg orally daily, Day 6, 3=diarrhea): 2.5 | Stool score (group's average score) (HLA-B27 rats [4]; 10 mg/kg orally daily, Day 7, 3=diarrhea): 2.5 | Stool score (group's average score) (HLA-B27 rats [4]; 10 mg/kg orally daily, Day 8, 3=diarrhea): 2 | Stool score (group's average score) (HLA-B27 rats [4]; 10 mg/kg orally daily, Day 9, 3=diarrhea): 2 | Stool score (group's average score) (HLA-B27 rats [4]; 10 mg/kg orally daily, Day 10, 3=diarrhea): 1.5 | Stool score (group's average score) (HLA-B27 rats [4]; 10 mg/kg orally daily, Day 11, 3=diarrhea): 1.5 | Stool score (group's average score) (HLA-B27 rats [4]; 10 mg/kg orally daily, Day 12, 3=diarrhea): 1.5 | Stool score (group's average score) (HLA-B27 rats [4]; 10 mg/kg orally daily, Day 13, 3=diarrhea): 1.75 | Stool score (group's average score) (HLA-B27 rats [4]; 10 mg/kg orally daily, Day 14, 3=diarrhea): 1.75 | Stool score (group's average score) (HLA-B27 rats [4]; 10 mg/kg orally daily, Day 15, 3=diarrhea): 1.5 | Stool score (group's average score) (HLA-B27 rats [4]; 10 mg/kg orally daily, Day 16, 3=diarrhea): 1.5 | Stool score (group's average score) (HLA-B27 rats [4]; 10 mg/kg orally daily, Day 17, 3=diarrhea): 1.25 | Stool score (group's average score) (HLA-B27 rats [4]; 10 mg/kg orally daily, Day 18, 3=diarrhea): 1.25 | Stool score (group's average score) (HLA-B27 rats [4]; 10 mg/kg orally daily, Day 19, 3=diarrhea): 1.25 | Stool score (group's average score) (HLA-B27 rats [4]; 10 mg/kg orally daily, Day 20, 3=diarrhea): 1.25 | Stool score (group's average score) (HLA-B27 rats [4]; 10 mg/kg orally daily, Day 21, 3=diarrhea): 1.25 | Stool score (group's average score) (HLA-B27 rats [4]; 10 mg/kg orally daily, Day 22, 3=diarrhea): 1 | Stool score (group's average score) (HLA-B27 rats [4]; 10 mg/kg orally daily, Day 23, 3=diarrhea): 1 | Stool score (group's average score) (HLA-B27 rats [4]; 10 mg/kg orally daily, Day 24, 3=diarrhea): 1 | Stool score (group's average score) (HLA-B27 rats [4]; 10 mg/kg orally daily, Day 25, 3=diarrhea): 1 | Fibrosis (0–2) (HLA-B27 rats [4]; [9]): 0.07 ± 0.13 | Inflammation (0–3) (HLA-B27 rats [4]; [9]): 1.13 ± 0.43 | Lesion depth (0–2) (HLA-B27 rats [4]; [9]): 0.38 ± 0.43 | Total score (HLA-B27 rats [4]; [9]): 2.00 ± 1.14 | Ulceration (0–2) (HLA-B27 rats [4]; [9]): 0.44 ± 0.43 | Casein kinase II mRNA/18S rRNA (mean ± SEM) (casein kinase II mRNA; 20 mg/kg sc 6 days): 1.06 ± 0.17 | mean uterine weight (mg) ± SEM ([5]; 2 mg/rat/day coadministered with 17α-ethinyl-17β-estradiol 0.06 μg/rat/day (antagonist mode)): 81.9 ± 4.2 mg | mean uterine weight (mg) ± SEM ([5]; 2 mg/rat/day sc, days 19-21): 23.3 ± 1.3 mg | Progesterone receptor mRNA (arbitrary units; mean ± stdev) ([1]; 10 mg/kg): 33.7 ± 20.6 arbitrary units | mean uterine weight (mg) ± SEM [2]: 12.6 ± 0.8 mg | Joint inflammation score (Lewis rats [6]; Day 1, maximal score 12): 11.33 | Joint inflammation score (Lewis rats [6]; Day 2, maximal score 12): 10.83 | Joint inflammation score (Lewis rats [6]; Day 3, maximal score 12): 9.33 | Joint inflammation score (Lewis rats [6]; Day 4, maximal score 12): 8.00 | Joint inflammation score (Lewis rats [6]; Day 5, maximal score 12): 5.83 | Joint inflammation score (Lewis rats [6]; Day 6, maximal score 12): 3.33 | Joint inflammation score (Lewis rats [6]; Day 7, maximal score 12): 3.00 | Joint inflammation score (Lewis rats [6]; Day 8, maximal score 12): 2.50 | Joint inflammation score (Lewis rats [6]; Day 9, maximal score 12): 2.50 | Joint inflammation score (Lewis rats [6]; Day 10, maximal score 12): 2.50 | Joint inflammation score (Lewis rats [6]; Day 11, maximal score 12): 2.50 | Joint inflammation score (Lewis rats [6]; Day 12, maximal score 12): 2.50 | Joint inflammation score (Lewis rats [6]; Day 13, maximal score 12): 2.50 | Joint inflammation score (Lewis rats [6]; Day 14, maximal score 12): 2.50 | Joint inflammation score (Lewis rats [6]; Day 15, maximal score 12): 2.00 | Joint inflammation score (Lewis rats [6]; Day 16, maximal score 12): 1.33 | Joint inflammation score (Lewis rats [6]; Day 17, maximal score 12): 1.00 | Cartilage Cells (0–3) (Lewis rats [6]; [10]): 0.75 ± 0.42 | Cartilage Structure (0–6) (Lewis rats [6]; [10]): 1.83 ± 0.68 | Saffranin-O/Fast Green Staining (0–4) (Lewis rats [6]; [10]): 1.25 ± 0.52 | Tidemark Integrity (0–1) (Lewis rats [6]; [10]): 0 | Total Mankin Score (0–14) (Lewis rats [6]; [10]): 3.83 ± 1.21 | Fibroplasia (0–3) (Lewis rats [6]; [11]): 0.75 ± 0.42 | Inflammatory Cells (0–3) (Lewis rats [6]; [11]): 1.25 ± 0.42 | Pannus (0–1) (Lewis rats [6]; [11]): 0.33 ± 0.61 | Synovial Structure (0–3) (Lewis rats [6]; [11]): 1.58 ± 0.38 | Total Synovitis Score (0–10) (Lewis rats [6]; [11]): 3.83 ± 0.93 | Joint inflammation score (HLA-B27 rats [7]; Day 29): 0.5 | Joint inflammation score (HLA-B27 rats [7]; Day 30): 0.5 | Joint inflammation score (HLA-B27 rats [7]; Day 31): 0.5 | Joint inflammation score (HLA-B27 rats [7]; Day 32): 1 | Joint inflammation score (HLA-B27 rats [7]; Day 33): 1.75 | Joint inflammation score (HLA-B27 rats [7]; Day 34): 1.5 | Joint inflammation score (HLA-B27 rats [7]; Day 35): 1 | Joint inflammation score (HLA-B27 rats [7]; Day 36): 1.75 | Joint inflammation score (HLA-B27 rats [7]; Day 37): 1.75 | Joint inflammation score (HLA-B27 rats [7]; Day 38): 1.5 | Joint inflammation score (HLA-B27 rats [7]; Day 39): 0.75 | Joint inflammation score (HLA-B27 rats [7]; Day 40): 0.75 | Joint inflammation score (HLA-B27 rats [7]; Day 41): 0.5 | Joint inflammation score (HLA-B27 rats [7]; Day 42): 1.5 | Joint inflammation score (HLA-B27 rats [7]; Day 43): 1.25 | Joint inflammation score (HLA-B27 rats [7]; Day 44): 1.75 | Joint inflammation score (HLA-B27 rats [7]; Day 45): 1.25 | Joint inflammation score (HLA-B27 rats [7]; Day 46): 0.75 | Mankin score (mean ± SD) (HLA-B27 rats [7]; [12]): 4.5 ± 1.8 | Synovitis score (mean ± SD) (HLA-B27 rats [7]; [12]): 5.0 ± 2.5

Oc1ccc(-c2ccc3cc(O)ccc3c2)cc1 [Example 1e, 6-(4-Hydroxyphenyl)-2-naphthol]
Regulation of metallothionein-II mRNA [8]: 17.0

Oc1ccc2cc(-c3ccc(O)c(Cl)c3)ccc2c1 [Example 1l, 6-(3-Chloro-4-hydroxyphenol)-2-naphthol]
Regulation of metallothionein-II mRNA [8]: 5.5

Oc1ccc(-c2ccc3c(Br)c(O)ccc3c2)cc1 [Example 1o, 1-Bromo-6-(4-hydroxyphenyl)-2-naphthol]
Regulation of metallothionein-II mRNA [8]: 5.7

Oc1ccc(-c2ccc3c(Cl)c(O)ccc3c2)cc1 [Example 1p, 1-Chloro-6-(4-hydroxyphenyl)-2-naphthol]
Regulation of metallothionein-II mRNA [8]: 6.0

N#Cc1c(O)ccc2cc(-c3ccc(O)cc3)ccc12 [Example 1s, 2-Hydroxy-6-(4-hydroxyphenyl)-1-naphthonitrile]
Regulation of metallothionein-II mRNA [8]: 4.9
